Assay results: patent US12077555B2, “STAT degraders and uses thereof” (Kymera Therapeutics, Inc., priority 2019, dated 2024)
Where two headings read alike, the source gives them in different places.

Target: STAT3 (Homo sapiens, UniProt P40763)
Assay: STAT3 HiBiT degradation assay in transfected A549 cells
Type: cell-based
Set-up: expressed in transfected cells; host or cells: A549
Procedure, shortened: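 Transfected A549 cells (~2000/well) plated 24 h, then treated 24 h at 37 °C, 5% CO2 with a 3-fold, 10-point compound dilution. HiBiT lytic luminescence read after 10 min at room temperature; remaining STAT3 normalized to negative and positive controls, four-parameter fit. DC50 binned A <0.01, B 0.01–0.1, C 0.1–1.0, D >1.0 µM.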

[1] = A549, 24 h; read-out: STAT3 HiBiT A549 degradation 24 h: Average external-Abs DC50

Chain of STAT3 (P40763 whole entry): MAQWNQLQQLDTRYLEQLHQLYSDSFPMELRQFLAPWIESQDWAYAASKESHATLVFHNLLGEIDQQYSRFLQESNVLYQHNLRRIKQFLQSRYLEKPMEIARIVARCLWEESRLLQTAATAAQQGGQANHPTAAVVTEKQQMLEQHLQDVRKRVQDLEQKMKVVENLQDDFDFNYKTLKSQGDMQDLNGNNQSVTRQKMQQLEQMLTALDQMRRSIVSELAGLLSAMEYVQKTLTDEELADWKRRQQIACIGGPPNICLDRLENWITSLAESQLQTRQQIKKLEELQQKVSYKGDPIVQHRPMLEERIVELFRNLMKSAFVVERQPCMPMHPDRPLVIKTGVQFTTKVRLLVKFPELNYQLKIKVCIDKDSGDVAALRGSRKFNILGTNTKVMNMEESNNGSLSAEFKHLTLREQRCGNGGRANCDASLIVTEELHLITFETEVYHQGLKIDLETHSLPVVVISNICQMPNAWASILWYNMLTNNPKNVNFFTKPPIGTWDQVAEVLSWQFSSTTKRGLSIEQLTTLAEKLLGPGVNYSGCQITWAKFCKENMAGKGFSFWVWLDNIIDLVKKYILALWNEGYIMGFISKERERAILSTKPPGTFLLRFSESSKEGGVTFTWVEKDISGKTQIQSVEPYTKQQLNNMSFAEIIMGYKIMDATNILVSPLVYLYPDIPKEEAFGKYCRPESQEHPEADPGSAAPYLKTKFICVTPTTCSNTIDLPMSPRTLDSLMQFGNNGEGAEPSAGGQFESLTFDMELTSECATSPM

Cc1ncsc1-c1ccc([C@H](C)NC(=O)[C@@H]2C[C@@H](O)CN2C(=O)[C@@H](NC(=O)CCCCCc2cccc(NC[C@H](CCC(N)=O)NC(=O)[C@@H]3Cc4cccc5c4N3C(=O)[C@@H](NC(=O)c3cc4cc(C(=O)P(=O)(O)O)ccc4[nH]3)CC5)c2F)C(C)(C)C)cc1 [Compound I-265, diammonium 2-[[(2S,11S)-2-[(4-carbamoyl-1-[[2-fluoro-3-(5-[[(2S)-1-[(2S,4R)-4-hydroxy-2-[[(1S)-1-[4-(4-methyl-1,3-thiazol-5-yl)phenyl]ethyl]carbamoyl]pyrrolidin-1-yl]-3,3-dimethyl-1-oxobutan-2-yl]carbamoyl]pentyl)phenyl]amino]butan-2-yl)carbamoyl]-12-oxo-1-azatricyclo[6.4.1.0^[4,13]]trideca-4(13),5,7-trien-11-yl]carbamoyl]-1H-indole-5-carbonylphosphonate]
DC50 [1]: 10 to 100 nM

Cc1cc(CCCCCC(=O)N[C@H](C(=O)N2C[C@H](O)C[C@H]2C(=O)N[C@@H](C)c2ccc(-c3scnc3C)cc2)C(C)(C)C)c(F)c(OC[C@H](CCC(N)=O)NC(=O)[C@@H]2Cc3cccc4c3N2C(=O)[C@@H](NC(=O)c2cc3cc(C(=O)P(=O)(O)O)ccc3[nH]2)CC4)c1 [Compound I-266, 2-[[(2S,11S)-2-[[(2S)-4-carbamoyl-1-[2-fluoro-3-(5-[[(2S)-1-[(2S,4R)-4-hydroxy-2-[[(1S)-1-[4-(4-methyl-1,3-thiazol-5-yl)phenyl]ethyl]carbamoyl]pyrrolidin-1-yl]-3,3-dimethyl-1-oxobutan-2-yl]carbamoyl]pentyl)-5-methylphenoxy]butan-2-yl]carbamoyl]-12-oxo-1-azatricyclo[6.4.1.[4,13]]trideca-4(13),5,7-trien-11-yl]carbamoyl]-1H-indole-5-carbonylphosphonic acid]
DC50 [1]: < 10 nM

Cc1ncsc1-c1ccc([C@H](C)NC(=O)[C@@H]2C[C@@H](O)CN2C(=O)[C@@H](NC(=O)CCCCCc2cc(F)cc(OC[C@H](CCC(N)=O)NC(=O)[C@@H]3Cc4cccc5c4N3C(=O)[C@@H](NC(=O)c3cc4cc(C(=O)P(=O)(O)O)ccc4[nH]3)CC5)c2F)C(C)(C)C)cc1 [Compound I-267]
DC50 [1]: < 10 nM

Cc1ncsc1-c1ccc([C@H](C)NC(=O)[C@@H]2C[C@@H](O)CN2C(=O)[C@@H](NC(=O)CCCCCc2ccnc([C@H](CCC(N)=O)NC(=O)[C@@H]3Cc4cccc5c4N3C(=O)[C@@H](NC(=O)c3cc4cc(C(=O)P(=O)(O)O)ccc4[nH]3)CC5)c2)C(C)(C)C)cc1 [Compound I-268, 2-[[(2S,11S)-2-[[(1S)-3-carbamoyl-1-[4-(5-[[(2S)-1-[(2S,4R)-4-hydroxy-2-[[(1S)-1-[4-(4-methyl-1,3-thiazol-5-yl)phenyl]ethyl]carbamoyl]pyrrolidin-1-yl]-3,3-dimethyl-1-oxobutan-2-yl]carbamoyl]pentyl)pyridin-2-yl]propyl]carbamoyl]-12-oxo-1-azatricyclo [6.4.1.0^[4,13]]trideca-4(13),5,7-trien-11-yl]carbamoyl]-1H-indole-5-carbonylphosphonic acid]
DC50 [1]: 100 to 1000 nM

Cn1c(=O)n(C2CCC(=O)NC2=O)c2ccc(CCCCCCOc3ccc4c5c3CC[C@H](NC(=O)c3cc6cc(C(=O)P(=O)(O)O)ccc6[nH]3)C(=O)N5[C@H](C(=O)N[C@@H](CCC(N)=O)C(=O)NC(c3ccccc3)c3ccccc3)C4)cc21 (stereo partly drawn) [Compound I-269, 2-[[(2S,11S)-2-[[(1S)-3-Carbamoyl-1-(diphenylmethylcarbamoyl)propyl]carbamoyl]-7-([6-[1-(2,6-dioxopiperidin-3-yl)-3-methyl-2-oxo-1,3-benzodiazol-5-yl]hexyl]oxy)-12-oxo-1-azatricyclo[6.4.1.0^[4,13]]trideca-4(13),5,7-trien-11-yl]carbamoyl]-1H-indole-5-carbonylphosphonic acid]
DC50 [1]: > 1000 nM

Cn1c(=O)n(C2CCC(=O)NC2=O)c2ccc(CCCCOc3ccc4c5c3CC[C@H](NC(=O)c3cc6cc(C(=O)P(=O)(O)O)ccc6[nH]3)C(=O)N5[C@H](C(=O)N[C@@H](CCC(N)=O)C(=O)NC(c3ccccc3)c3ccccc3)C4)cc21 (stereo partly drawn) [Compound I-270, 2-[[(2S,11S)-2-[[(1S)-3-carbamoyl-1-(diphenylmethylcarbamoyl)propyl]carbamoyl]-7-[4-[1-(2,6-dioxopiperidin-3-yl)-3-methyl-2-oxo-1,3-benzodiazol-5-yl]butoxy]-12-oxo-1-azatricyclo[6.4.1.0^[4,13]]trideca-4(13),5,7-trien-11-yl]carbamoyl]-1H-indole-5-carbonylphosphonic acid]
DC50 [1]: 100 to 1000 nM

Cn1c(=O)n(C2CCC(=O)NC2=O)c2ccc([C@H]3CC[C@H](CCCC(=O)N4CC[C@H]5CC[C@@H](C(=O)NC(CCC(N)=O)C(=O)NC(c6ccccc6)c6ccccc6)N5C[C@@H](NC(=O)c5cc6cc(C(=O)P(=O)(O)O)ccc6[nH]5)C4)CC3)cc21 (stereo partly shown) [Compound I-271]
DC50 [1]: 100 to 1000 nM

CC(=O)O[C@@H]1C[C@@H](C(=O)N[C@@H](C)c2ccc(-c3scnc3C)cc2)N(C(=O)[C@@H](NC(=O)CCCCCc2cccc(OC[C@H](CCC(N)=O)NC(=O)[C@@H]3Cc4cccc5c4N3C(=O)[C@@H](NC(=O)c3cc4cc(C(=O)P(=O)(O)O)ccc4[nH]3)CC5)c2F)C(C)(C)C)C1 [Compound I-272]
DC50 [1]: < 10 nM

Cn1c(=O)n(C2CCC(=O)NC2=O)c2ccc([C@H]3CC[C@@H](CCC(=O)N4CC[C@H]5CC[C@@H](C(=O)N[C@@H](CCC(N)=O)C(=O)NC(c6ccccc6)c6ccccc6)N5C(=O)[C@@H](NC(=O)c5cc6cc(C(=O)P(=O)(O)O)ccc6[nH]5)C4)CC3)cc21 (stereo partly drawn) [Compound I-273, 2-[[(5S,8S,10aR)-8-[[(1S)-3-carbamoyl-1-(diphenylmethylcarbamoyl)propyl]carbamoyl]-6-oxo-3-[3-[(1s,4s)-4-[1-(2,6-dioxopiperidin-3-yl)-3-methyl-2-oxo-1,3-benzodiazol-5-yl]cyclohexyl]propanoyl]-octahydropyrrolo[1,2-a][1,5]diazocin-5-yl]carbamoyl]-1H-indole-5-carbonylphosphonic acid]
DC50 [1]: 100 to 1000 nM

Cn1c(=O)n(C2CCC(=O)NC2=O)c2ccc([C@H]3CC[C@@H](CCCC(=O)N4CC[C@H]5CC[C@@H](C(=O)N[C@@H](CCC(N)=O)C(=O)NC(c6ccccc6)c6ccccc6)N5C(=O)[C@@H](NC(=O)c5cc6cc(C(=O)P(=O)(O)O)ccc6[nH]5)C4)CC3)cc21 (stereo partly drawn) [Compound I-274, 2-[[(5S,8S,10aR)-8-[[(1S)-3-carbamoyl-1-(diphenylmethylcarbamoyl)propyl]carbamoyl]-6-oxo-3-[4-[(1s,4r)-4-[1-(2,6-dioxopiperidin-3-yl)-3-methyl-2-oxo-1,3-benzodiazol-5-yl]cyclohexyl]butanoyl]-octahydropyrrolo[1,2-a][1,5]diazocin-5-yl]carbamoyl]-1H-indole-5-carbonylphosphonic acid]
DC50 [1]: 100 to 1000 nM

Cc1ncsc1-c1ccc([C@H](C)NC(=O)[C@@H]2C[C@@H](O)CN2C(=O)[C@@H](NC(=O)CCCCc2cccc(OC[C@H](CCC(N)=O)NC(=O)[C@@H]3CCCN3C(=O)[C@H](CC(C)C)NC(=O)c3cc4cc(C(=O)P(=O)(O)O)ccc4[nH]3)c2F)C(C)(C)C)cc1 [Compound I-276, diammonium 2-[[(2S)-1-[(2S)-2-[[(2S)-4-carbamoyl-1-[2-fluoro-3-(4-[[(2S)-1-[(2S,4R)-4-hydroxy-2-[[(1S)-1-[4-(4-methyl-1,3-thiazol-5-yl)phenyl]ethyl]carbamoyl]pyrrolidin-1-yl]-3,3-dimethyl-1-oxobutan-2-yl]carbamoyl]butyl)phenoxy]butan-2-yl]carbamoyl]pyrrolidin-1-yl]-4-methyl-1-oxopentan-2-yl]carbamoyl]-1H-indole-5-carbonylphosphonate]
DC50 (read-out: STAT3 HiBiT A549 degradation 24 h: Average external-Abs DC50; A549, 24 h): < 10 nM

Cn1c(=O)n(C2CCC(=O)NC2=O)c2ccc(CCCCCCc3cc4c5c(c3)C[C@@H](C(=O)N[C@@H](CCC(N)=O)c3ccccn3)N5C(=O)[C@@H](NC(=O)c3cc5cc(C(=O)P(=O)(O)O)ccc5[nH]3)CC4)cc21 (stereo partly drawn) [Compound I-277, 2-[[(2S,11S)-2-[[(1S)-3-carbamoyl-1-(pyridin-2-yl)propyl]carbamoyl]-6-[6-[1-(2,6-dioxopiperidin-3-yl)-3-methyl-2-oxo-1,3-benzodiazol-5-yl]hexyl]-12-oxo-1-azatricyclo[6.4.1.0^[4,13]]trideca-4(13),5,7-trien-11-yl]carbamoyl]-1H-indole-5-carbonylphosphonic acid]
DC50 [1]: 10 to 100 nM

Cn1c(=O)n(C2CCC(=O)NC2=O)c2ccc([C@H]3CC[C@H](CCC(=O)N4CC[C@H]5CC[C@@H](C(=O)N[C@@H](CCC(N)=O)C(=O)NC(c6ccccc6)c6ccccc6)N5C(=O)[C@@H](NC(=O)c5cc6cc(C(=O)P(=O)(O)O)ccc6[nH]5)C4)CC3)cc21 (stereo partly drawn) [Compound I-278, 2-[[(5S,8S,10aR)-8-[[(1S)-3-carbamoyl-1-(diphenylmethylcarbamoyl)propyl]carbamoyl]-6-oxo-3-[3-[(1r,4r)-4-[1-(2,6-dioxopiperidin-3-yl)-3-methyl-2-oxo-1,3-benzodiazol-5-yl]cyclohexyl]propanoyl]-octahydropyrrolo[1,2-a][1,5]diazocin-5-yl]carbamoyl]-1H-indole-5-carbonylphosphonic acid]
DC50 [1]: 100 to 1000 nM

Cc1ncsc1-c1ccc([C@H](C)NC(=O)[C@@H]2C[C@@H](O)CN2C(=O)[C@@H](NC(=O)CCCCCc2cccc(OC[C@H](CCC(N)=O)NC(=O)[C@@H]3CCCN3C(=O)[C@H](CC(C)C)NC(=O)c3cc4cc(C(=O)P(=O)(O)O)ccc4[nH]3)c2F)C(C)(C)C)cc1 [Compound I-279]
DC50 [1]: < 10 nM

Cc1ncsc1-c1ccc([C@H](C)NC(=O)[C@@H]2C[C@@H](O)CN2C(=O)[C@@H](NC(=O)CCCCc2cccc(NC(=O)[C@H](CCC(N)=O)NC(=O)[C@@H]3Cc4cccc5c4N3C(=O)C(CC(=O)c3cc4ccc(C(=O)P(=O)(O)O)cc4[nH]3)CC5)c2)C(C)(C)C)cc1 (stereo partly shown) [Compound I-280]
DC50 [1]: 10 to 100 nM

Cc1ncsc1-c1ccc([C@H](C)NC(=O)[C@@H]2C[C@@H](O)CN2C(=O)[C@@H](NC(=O)OCCCCc2cccc(OC[C@H](CCC(N)=O)NC(=O)[C@@H]3Cc4cccc5c4N3C(=O)[C@@H](NC(=O)c3cc4cc(C(=O)P(=O)(O)O)ccc4[nH]3)CC5)c2F)C(C)(C)C)cc1 [Compound I-281]
DC50 [1]: < 10 nM
